{"source": "patent US5420010A", "about": "“Assay for evaluating inhibition of polymorphonuclear leukocyte elastase by N-substituted azetidinones” (Merck & Co., Inc., priority 1993, dated 1995)", "tested_on": "HLE:α1 PI complexes", "experiment": "Decrease in HLE:α1 PI complexes formed in A23187-stimulated human blood (ELISA)", "assay_type": "cell-based", "conditions": "after treatment with A23187, 100 μM, 30 minutes", "protocol": "The blood was then incubated for 30 minutes at 37° C. with 100 μM A23187 (CAL. BIOCHEM.) to stimulate the release of HLE from polymorphonuclear leukocytes. Platelet rich plasma was removed from each sample and prepared for the analysis of HLE:α1 PI complexes by ELISA, and Aα(1-21) by specific RIA.\n(Compound B* differs from Compound B only by the substituent on the phenoxy.) A23187, 100 μM, was added and the blood was incubated for an additional 30 minutes. The amounts of reactivation product and α1 PI:elastase complex in the plasma were determined. The total concentration of α1 PI:Elastase complexes formed was 139 μM after treatment with A23187.", "data": [{"molecule": "CNc1ccc2oc(C[C@H]3O[C@@]4(CC[C@H]3C)O[C@H]([C@H](C)C(=O)c3ccc[nH]3)[C@H](C)C[C@H]4C)nc2c1C(=O)O", "note": "[Compound A23187]", "values": [{"measurement": "total concentration of α1 PI:Elastase complexes formed", "result": 139, "unit": "µM"}]}]}
